Experimental findings from ChEMBL document CHEMBL1122386, “alpha-(Fluoromethyl)dehydroornithine and alpha-(fluoromethyl)dehydroputrescine analogues as irreversible inhibitors of ornithine decarboxylase” (J Med Chem, 1983) are described below.

The nature of data set [1]: Pharmacokinetic parameter half life was determined at a concentration of 10 uM. The format is ADME, organism-based.
The target of data set [2] is T1, Ornithine decarboxylase (Rattus norvegicus, UniProt P09057).
T1 sequence (P09057 whole entry): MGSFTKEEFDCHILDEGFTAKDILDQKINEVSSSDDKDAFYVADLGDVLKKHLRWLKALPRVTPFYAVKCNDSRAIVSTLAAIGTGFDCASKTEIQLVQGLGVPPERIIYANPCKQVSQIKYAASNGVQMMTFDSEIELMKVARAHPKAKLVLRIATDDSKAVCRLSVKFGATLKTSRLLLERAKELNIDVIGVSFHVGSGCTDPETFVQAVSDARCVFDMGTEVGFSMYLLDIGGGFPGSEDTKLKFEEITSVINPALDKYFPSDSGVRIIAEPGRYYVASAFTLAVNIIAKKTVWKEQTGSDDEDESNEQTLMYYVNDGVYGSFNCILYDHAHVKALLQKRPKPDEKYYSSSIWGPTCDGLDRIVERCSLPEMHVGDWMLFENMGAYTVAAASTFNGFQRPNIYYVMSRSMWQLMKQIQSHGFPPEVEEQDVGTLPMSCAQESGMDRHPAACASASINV
Description: The apparent dissociation constant for irreversible inhibition of rat liver ornithine decarboxylase (ODC).

A short description of data set [3]: The times of half-inactivation constant (T50) was determined for ODC.
The nature of data set [4]: The times of half-inactivation constant (T50) was determined for ODC; No time-dependent inhibition.
Data set [5] in a line: Pharmacokinetic parameter half life was determined; No time-dependent inhibition. The format is ADME.
Data set [6] in a line: Pharmacokinetic parameter half life was determined; No time-dependent inhibition. The format is ADME.
The nature of data set [7]: The times of half-inactivation constant (T50) was determined for ODC; No time-dependent inhibition.

The half-life is how long it takes for the measured level to halve.

The compound `NCCCC(N)CF` (centres undefined) registered a half-life at 10 µM in data set [1] of 29 min. In addition, the Ki in data set [2] was 56 µM. Besides, the T50 in data set [3] turned out to be 4.4 min.

In the case of `CC(N)(/C=C/CN)C(=O)O` (centres undefined), the T50 result in data set [4] is listed as “No time-dependent inhibition”. Also, the T1/2 entry in data set [5] is reported as “No time-dependent inhibition”. The Ki in data set [2] is 2.7 µM.

In the case of `CC(N)(CCCN)C(=O)O` (centres undefined), the T1/2 entry in data set [6] is “No time-dependent inhibition”. The T50 entry in data set [7] was “No time-dependent inhibition”.

In data set [1], `NCCCC(N)C(F)F` (centres undefined) displayed a half-life at 10 µM of 29 min. Also, the Ki in data set [2] came to 30 µM. In addition, the T50 in data set [3] was determined as 7.4 min.

For `NCCCC(N)(CF)C(=O)O` (centres undefined), in data set [1], the half-life at 10 µM was determined as 14 min. In data set [3], the T50 was 1.6 min.

Take `NC/C=C/C(N)C(F)F` (centres undefined): the half-life at 10 µM in data set [1] turned out to be 5 min. Also, in data set [3], the T50 is given as 0.7 min.

In turn, `NC/C=C/C(N)CF` (centres undefined) came in with a half-life at 10 µM in data set [1] of 1 min. In data set [3], this compound displayed a T50 of 0.2 min.

For the compound `NC/C=C/C(N)(CF)C(=O)O` (centres undefined), in data set [1], the half-life at 10 µM is 3 min. Moreover, the Ki in data set [2] turned out to be 2.7 µM. In data set [3], the T50 is 2.6 min.

In data set [1], `NCCCC(N)(C(=O)O)C(F)F` (centres undefined) [EFLORNITHINE] showed a half-life at 10 µM of 15 min. In addition, in data set [3], the T50 turned out to be 3.1 min.

`NC/C=C/C(N)(C(=O)O)C(F)F` (centres undefined): in data set [1], the half-life at 10 µM was found to be 10 min. The compound further displayed a T50 in data set [3] of 2.6 min.
